From patent EP4582418A1, “CRYSTALLINE FORM OF QUINOLINE DERIVATIVE INHIBITOR, PREPARATION METHOD THEREFOR AND USE THEREOF” (TransThera Sciences (Nanjing), Inc., priority 2022, dated 2024) come the findings set out here.

Data set [1] can be described thus: Solubility in FaSSIF (pH 6.5) and FeSSIF (pH 5.0) buffer solutions. Type of data set: physicochemical. The conditions noted are these: for 24-hour solubility in buffer solutions with different pH values pH6.5: FaSSIF (pH 6.5); for 24-hour solubility in buffer solutions with different pH values pH6.5 / 24-hour solubility in buffer solutions with different pH values pH5.0: 37 °C, shaken 24 h; for 24-hour solubility in buffer solutions with different pH values pH5.0: FeSSIF (pH 5.0); for solubility compared with the compound of formula (I): test solutions at pH 5.0 and pH 6.5. As to the method:
Test substances: the crystal forms I, II, III, and IV of the methanesulfonate of the compound of formula (I).
• 1) 0.42 g of NaOH, 3.44 g of anhydrous NaH2PO4, and 6.19 g of NaCl were dissolved in about 0.9 L of pure water; • 2) the pH was adjusted to 6.5 using 1 N NaOH or 1 N HCl, and the buffer solution was supplemented to the volume of 1 L with pure water at room temperature; • 3) 2.24 g of FaSSIF powder was added to about 0.5 L of the buffer solution, and the mixture was stirred until the powder was completely dissolved; the resulting solution was supplemented to the volume of 1 L with the buffer solution at room temperature, and after being left to stand for 2 h, it was ready for use.
• 1) 4.04 g of NaOH, 8.65 g of glacial acetic acid, and 11.87 g of NaCl were dissolved in about 0.9 L of pure water; • 2) the pH was adjusted to 5.0 using 1 N NaOH or 1 N HCl, and the buffer solution was supplemented to the volume of 1 L with pure water at room temperature; • 3) 11.2 g of FeSSIF powder was added to about 0.5 L of the buffer solution, and the mixture was stirred until the powder was completely dissolved; the resulting solution was supplemented to the volume of 1 L with the buffer solution at room temperature, and after being left to stand for 2 h, it was ready for use.
An appropriate amount of each test substance was placed into separate 10 mL PE tubes, and FaSSIF (pH 6.5) buffer solution and FeSSIF (pH 5.0) buffer solution, each 10 mL, were added into the tubes, respectively. The tubes were then placed in a constant temperature water bath shaker and shaken at 37 °C for 24 h. After 24 h, samples were collected and centrifuged. The supernatants were diluted, and the solubility of the supernatants was measured.

Data set [2] can be described thus: PK evaluation of crystal forms in rats. As to conditions: SD rats, PO 60 mg/kg. In kind it is in vivo. The procedure: The experimental crystal forms I and II of the methanesulfonate of the compound of formula (I) were each prepared into a suspension solution with 0.5% HPMC. The compound solutions were intragastrically administered to SD rats at a dose of 60 mg/kg. Blood samples were collected at time points of 15 min, 30 min, 1 h, 2 h, 4 h, 6 h, 8 h, 24 h, 48 h, 72 h, and 96 h after administration.
The animals were fixed, with tails warmed in a water bath 10 min before each sampling time point. About 100 µL of blood was collected via the tail vein, and the blood samples were collected in anticoagulation tubes containing EDTA-K2. The blood samples were then centrifuged at 8,000 rpm for 6 min at 4 °C to give plasma samples. The plasma samples were prepared within 30 min after blood collection. The plasma samples were stored in a refrigerator at -80 °C before the test.
The sample to be tested was taken out from the -80 °C refrigerator, naturally thawed at room temperature, and vortexed for 5 min. 20 µL of plasma sample was precisely pipetted to a 1.5 mL centrifuge tube, and 200 µL of internal standard working solution (a solution of tolbutamide in methanol, 100 ng/mL) was added. The resulting mixture was thoroughly mixed, vortexed for 5 min, and centrifuged at 12,000 rpm for 5 min. 50 µL of supernatant was precisely pipetted to a 96-well plate pre-loaded with 150 µL of water per well, and the resulting mixture was vortexed for 5 min and then used for LC-MS/MS analysis.
The concentrations of the test samples were calculated by Analyst 1.6.3 from AB Sciex. Parameters such as mean, standard deviation, and coefficient of variation (excluding those output directly by Analyst 1.6.3) were calculated by Microsoft Excel. PK parameters were calculated by Pharsight Phoenix 6.1 software NCA (Tmax was in median).

Data set [3] can be described thus: Stability test under influencing factors (high temperature, high humidity, illumination). Type of data set: physicochemical. The conditions noted are these: for changes in the appearance and purity: left to stand under conditions of the influencing factors for 30 days. As to the method:
Test substances: the crystal forms I, II, III, and IV of the methanesulfonate of the compound of formula (I) of the present disclosure.
Methodology: Appropriate amounts of samples of the crystal forms I, II, III, and IV of the methanesulfonate of the compound of formula (I) were separately left to stand open under the conditions of a high temperature (60 °C), a high humidity (RH 92.5%), and illumination (4500±500 Lux); sampling was performed on days 5, 10, and 30 to investigate changes in the appearance, purity, and crystal form of the samples.

Setting [4] is: Left to stand open at 60 °C for 5 days.
The mark [5] stands for this setting: Left to stand open at 60 °C for 10 days.
Where [6] appears, read: Left to stand open at 60 °C for 30 days.
Where [7] appears, read: Left to stand open at RH 92.5% for 5 days.
Setting [8] is: Left to stand open at RH 92.5% for 10 days.
The mark [9] stands for this setting: Left to stand open at RH 92.5% for 30 days.
Where [10] appears, read: Left to stand open under illumination (4500±500 Lux) for 5 days.
Setting [11] is: Left to stand open under illumination (4500±500 Lux) for 10 days.
Where [12] appears, read: Left to stand open under illumination (4500±500 Lux) for 30 days.

In the case of `COc1cc2nccc(Oc3ccc(NC(=O)c4nn(C(C)C)cc(-c5ccc(F)cc5)c4=O)nc3)c2cc1OC` [Compound of formula (I), N-(5-((6,7-dimethoxyquinolin-4-yl)oxy)pyridin-2-yl)-5-(4-fluorophenyl)-1-isopropyl-4-oxo-1,4-dihydropyridazine-3-carboxamide], in data set [1], the “24-hour solubility in buffer solutions with different pH values pH6.5” value was found to be 0.0002 mg/mL and the “24-hour solubility in buffer solutions with different pH values pH5.0” value amounted to 0.004 mg/mL.

Broadly, the Cmax is the highest concentration seen after dosing. As a reminder, the Tmax is the time from dosing to the highest level. Compound `COc1cc2nccc(Oc3ccc(NC(=O)c4nn(C(C)C)cc(-c5ccc(F)cc5)c4=O)nc3)c2cc1OC` [Crystal form II, N-(5-((6,7-dimethoxyquinolin-4-yl)oxy)pyridin-2-yl)-5-(4-fluorophenyl)-1-isopropyl-4-oxo-1,4-dihydropyridazine-3-carboxamide] returned an AUClast in data set [2] (0-96 h, n = 3) of 3054.395 µg·h/mL. In data set [2] (n = 3), this compound displayed a Cmax of 58.933 µg/mL. In data set [2] (n = 3, suspension in 0.5% HPMC), this compound yielded a λ_z of 0.026 h⁻¹. Further, in data set [2] (median, n = 3), the Tmax is 6.00 h. Further, in data set [2] (terminal half-life, n = 3), the tz1/2 worked out at 27.0 h. Besides, the Appearance entry in data set [3] (0 days), in data set [3] (setting [4]), in data set [3] (setting [5]), in data set [3] (setting [6]), in data set [3] (setting [7]) and in data set [3] (setting [8]) was “White or off-white solid” throughout. Besides, the Appearance result in data set [3] (setting [9]), in data set [3] (setting [10]), in data set [3] (setting [11]) and in data set [3] (setting [12]) was “White or off-white solid” each time. The Purity in data set [3] (0 days) is listed as 99.74%; in data set [3] (setting [4]), 99.74%; in data set [3] (setting [5]) it was 99.73%; in data set [3] (setting [6]) it was 99.72%; in data set [3] (setting [7]), 99.74%; in data set [3] (setting [8]), 99.74%. Also, the Purity in data set [3] (setting [9]) worked out at 99.74%; in data set [3] (setting [10]) it was 99.75%; in data set [3] (setting [11]) it was 99.74%; in data set [3] (setting [12]), 99.75%. Besides, in data set [3], the “changes in the appearance and purity” value was “no significant changes”. In addition, the “24-hour solubility in buffer solutions with different pH values pH6.5” value in data set [1] is 0.023 mg/mL. Moreover, in data set [1], the “24-hour solubility in buffer solutions with different pH values pH5.0” value came to 0.31 mg/mL. Also, the “solubility compared with the compound of formula (I)” value in data set [1] is reported as “significantly improved”.

In the case of `COc1cc2nccc(Oc3ccc(NC(=O)c4nn(C(C)C)cc(-c5ccc(F)cc5)c4=O)nc3)c2cc1OC` [Crystal form III, N-(5-((6,7-dimethoxyquinolin-4-yl)oxy)pyridin-2-yl)-5-(4-fluorophenyl)-1-isopropyl-4-oxo-1,4-dihydropyridazine-3-carboxamide], the Appearance entry in data set [3] (0 days), in data set [3] (setting [4]), in data set [3] (setting [5]), in data set [3] (setting [6]), in data set [3] (setting [7]) and in data set [3] (setting [8]) was “White or off-white solid” throughout. Besides, the Appearance result in data set [3] (setting [9]), in data set [3] (setting [10]), in data set [3] (setting [11]) and in data set [3] (setting [12]) was “White or off-white solid” each time. Also, the Purity in data set [3] (0 days) is 99.90%; in data set [3] (setting [4]), 99.90%; in data set [3] (setting [5]) it was 99.90%; in data set [3] (setting [6]), 99.89%; in data set [3] (setting [7]), 99.90%; in data set [3] (setting [8]), 99.90%. Besides, the Purity turned out to be 99.90% in data set [3] (setting [9]), 99.90% in data set [3] (setting [10]), 99.91% in data set [3] (setting [11]) and 99.91% in data set [3] (setting [12]). The “changes in the appearance and purity” value in data set [3] is reported as “no significant changes”. Also, the “24-hour solubility in buffer solutions with different pH values pH6.5” value in data set [1] was found to be 0.023 mg/mL. Besides, the “24-hour solubility in buffer solutions with different pH values pH5.0” value in data set [1] stood at 0.025 mg/mL. In data set [1], the “solubility compared with the compound of formula (I)” value is recorded as “significantly improved”.

Regarding `COc1cc2nccc(Oc3ccc(NC(=O)c4nn(C(C)C)cc(-c5ccc(F)cc5)c4=O)nc3)c2cc1OC` [Crystal form IV, N-(5-((6,7-dimethoxyquinolin-4-yl)oxy)pyridin-2-yl)-5-(4-fluorophenyl)-1-isopropyl-4-oxo-1,4-dihydropyridazine-3-carboxamide], the Appearance entry in data set [3] (0 days), in data set [3] (setting [4]), in data set [3] (setting [5]), in data set [3] (setting [6]), in data set [3] (setting [7]) and in data set [3] (setting [8]) was “White or off-white solid” in each case. For the same compound, the Appearance result in data set [3] (setting [9]), in data set [3] (setting [10]), in data set [3] (setting [11]) and in data set [3] (setting [12]) was “White or off-white solid” each time. The Purity in data set [3] (0 days) worked out at 99.91%; in data set [3] (setting [4]), 99.91%; in data set [3] (setting [5]), 99.91%; in data set [3] (setting [6]), 99.87%; in data set [3] (setting [7]), 99.92%; in data set [3] (setting [8]) it was 99.92%. Further, the Purity in data set [3] (setting [9]) amounted to 99.92%; in data set [3] (setting [10]) it was 99.91%; in data set [3] (setting [11]), 99.91%; in data set [3] (setting [12]), 99.88%. In addition, the “changes in the appearance and purity” value in data set [3] is listed as “no significant changes”. The “24-hour solubility in buffer solutions with different pH values pH6.5” value in data set [1] worked out at 0.023 mg/mL. Besides, the “24-hour solubility in buffer solutions with different pH values pH5.0” value in data set [1] turned out to be 0.31 mg/mL. Besides, the “solubility compared with the compound of formula (I)” value in data set [1] is reported as “significantly improved”.
